Measured values taken from US10074530B1, “Carbon nanotube anchor for mass spectrometer” (University of South Florida, priority 2008, dated 2018).

Assays:
[1] = pH of solute solutions of equivalent molarity; assay type: physicochemical; settings: solution in 1:1 volumetric ratio acetonitrile to de-ionized water; 1.32 × 10^−6 mol, concentration as in Table 3
[2] = Solubility of matrix in acetonitrile/de-ionized water matrix solvent; assay type: physicochemical; settings: acetonitrile/de-ionized water 1:1 (v/v), aqueous with cosolvent or surfactant or cyclodextrin, thermodynamic from solid; 1:1 volumetric ratio acetonitrile to de-ionized water; read-out: Matrix concentration that displayed insolubility
Method: To further investigate the sample concentrating properties of CNT anchor spots, experiments were conducted using varying concentration of sample. Solutions were prepared. A solution of 1:1 volumetric ratio of acetonitrile to de-ionized water was prepared as a matrix solvent. Dry crystalline matrix αCHCA was weighed out with a Sartorius Research (Goettingen, Germany) model R200D digital precision balance and combined in a 1.5 mL Eppendorf® Safe-Lock Microcentrifuge tube (Westbury, N.Y.) with sufficient quantity of solution to achieve a matrix concentration varied over three orders of magnitude from 0.006 mg/mL to 6 mg/mL. […] All matrix solutions were prepared freshly and independently of each other in order to reduce possibility of concentration error. The samples were prepared by manually depositing 0.2 μL of solution from pipette to new carbon nanotube enhanced substrates (same parameters as previous experiment). The droplets were allowed to dry in ambient conditions (room temperature 23° C.), and time-lapse images were captured using the optical microscope described previously.

Row | pH [1] | SMILES | solubility [2] [µg/mL]
1 | 7.6 | OCCCCCCCCCCO [Decanediol, 1,10-Decanediol] | –
2 | 2.8 | O=C(O)c1ccccc1O [Salicylic acid] | –
3 | 4.5 | Oc1ccccc1O [Catechol] | –

Row | SMILES | pH [1] | solubility [2] [µg/mL]
4 | O=C(O)c1ccccc1 [Benzoic acid] | 3.6 | –
5 | N#CC(=Cc1ccc(O)cc1)C(=O)O [αCHCA, α-cyano-4-hydroxycinnamic acid] | 2.75 | > 6000
